In PubChem BioAssay (NCI) one finds TGI data, which are given here for eleven compounds.

Some test systems named below: SW-620 colon; SK-MEL-2 melanoma; NCI-H460 lung; OVCAR-3 ovarian; MDA-MB-231 breast; U251 CNS; SF-295 CNS; MCF7 breast; OVCAR-8 ovarian; OVCAR-4 ovarian; TK-10 renal; NCI-H522 lung; 786-0 renal; M14 melanoma; MDA-MB-435; SF-268 CNS; T-47D breast.
Common to all, as to test: growth of human tumour cells (NCI), 48 h

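Results reflect a 48-hour exposure of cells in 96-well plates to compound at five concentrations. TGI: concentration producing complete growth inhibition.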 Where only a bound is given, the exact number is not on record here.

On to `O=C1OC(CS(=O)(=O)c2ccccc2)CC1O` (stereo not drawn), for which the TGI in the assay with SW-620 colon, with SK-MEL-2 melanoma, with NCI-H460 lung, in the assay on OVCAR-3 ovarian, in the assay with MDA-MB-231 breast and with U251 CNS was more than 100 µM each time. Further, the TGI in the assay with SF-295 CNS, in the assay on MCF7 breast, in the assay with OVCAR-8 ovarian, in the assay with OVCAR-4 ovarian, in the assay with TK-10 renal and in the assay on NCI-H522 lung was more than 100 µM throughout. The TGI in the assay on 786-0 renal, in the assay on M14 melanoma, in the assay with MDA-MB-435 and with SF-268 CNS was more than 100 µM throughout.
Take `COC(=O)C(=O)C(C(=O)OC)C(=O)C(=O)Nc1cc(Cl)c(Cl)cc1Cl` (stereo not drawn): the TGI in the assay on SK-MEL-2 melanoma, in the assay with NCI-H460 lung, with OVCAR-3 ovarian, with U251 CNS, in the assay with SF-295 CNS and in the assay on OVCAR-8 ovarian was more than 100 µM throughout. The TGI in the assay on OVCAR-4 ovarian, in the assay with TK-10 renal, in the assay with NCI-H522 lung, in the assay with 786-0 renal, with M14 melanoma and with SF-268 CNS was more than 100 µM each time.
Take `Nc1ncnc2c1ncn2C1CC(OC2CCCCO2)C(CO)O1` (stereo not drawn): the TGI with SW-620 colon, with SK-MEL-2 melanoma, in the assay on NCI-H460 lung, in the assay on OVCAR-3 ovarian, in the assay with U251 CNS and with SF-295 CNS was more than 100 µM in each case. Also, the TGI in the assay with OVCAR-8 ovarian, in the assay on OVCAR-4 ovarian, in the assay on TK-10 renal, in the assay with NCI-H522 lung, with 786-0 renal and with M14 melanoma was more than 100 µM each time. The TGI with SF-268 CNS was more than 100 µM.
As for `Cc1cc(=O)[nH]c(NNC(C#N)c2ccco2)n1` (stereo not drawn), the TGI in the assay on SW-620 colon, in the assay with SK-MEL-2 melanoma, with NCI-H460 lung, in the assay with OVCAR-3 ovarian, with U251 CNS and with SF-295 CNS was more than 100 µM throughout. In addition, the TGI with OVCAR-8 ovarian, in the assay with OVCAR-4 ovarian, with TK-10 renal, in the assay with NCI-H522 lung, with 786-0 renal and in the assay with M14 melanoma was more than 100 µM throughout. The compound further had a TGI in the assay with SF-268 CNS of more than 100 µM.
Regarding `CC1=C2CN(C(=O)OCC(C)C)CCC2C2=C(C(=O)c3ccccc3C2=O)C1C` (stereo not drawn), the TGI in the assay on SW-620 colon, in the assay on MDA-MB-231 breast, in the assay on SF-295 CNS, in the assay with MCF7 breast, with OVCAR-8 ovarian and in the assay with T-47D breast was more than 10 µM each time. Besides, the TGI in the assay with OVCAR-4 ovarian, with TK-10 renal, in the assay on 786-0 renal, in the assay on M14 melanoma, with MDA-MB-435 and in the assay on SF-268 CNS was more than 10 µM in each case.
Regarding `O=C1NC2C(CCO)CC=C[C@H]2c2cc3c(cc21)OCO3` (stereo partly drawn), the TGI in the assay on SW-620 colon, in the assay on NCI-H460 lung, in the assay with OVCAR-3 ovarian, in the assay on U251 CNS, in the assay on SF-295 CNS and in the assay with OVCAR-8 ovarian was more than 100 µM in each case. In addition, the TGI in the assay on TK-10 renal, with NCI-H522 lung, in the assay on 786-0 renal, in the assay with M14 melanoma and in the assay on SF-268 CNS was more than 100 µM each time.
On to `C/C(=N/NC(N)=S)C(CN(C)C)C(C1=C(O)c2ccccc2OC1)c1ccccc1` (stereo not drawn), for which the TGI with SW-620 colon, with SK-MEL-2 melanoma, with NCI-H460 lung, in the assay with OVCAR-3 ovarian, with U251 CNS and in the assay on SF-295 CNS was more than 100 µM throughout. Besides, the TGI with OVCAR-8 ovarian, in the assay with OVCAR-4 ovarian, in the assay with TK-10 renal, with NCI-H522 lung, in the assay on 786-0 renal and in the assay with M14 melanoma was more than 100 µM each time. In the assay with SF-268 CNS, the TGI was more than 100 µM.
With `COc1ccc(C2S/C(=C\c3ccccc3)C(=O)N2NC(=O)Cc2ccccc2)cc1` (stereo not drawn), the TGI with SW-620 colon, with SK-MEL-2 melanoma, in the assay on NCI-H460 lung, with U251 CNS, with SF-295 CNS and with OVCAR-8 ovarian was more than 100 µM throughout. Further, the TGI in the assay with OVCAR-4 ovarian, in the assay on TK-10 renal, in the assay on NCI-H522 lung, in the assay on 786-0 renal, in the assay on M14 melanoma and in the assay with SF-268 CNS was more than 100 µM throughout.
As for `CN1N=C2c3ccccc3CC[C@H]2C1c1cccc(O)c1` (stereo partly drawn), the TGI in the assay with SW-620 colon, in the assay on SK-MEL-2 melanoma, in the assay with NCI-H460 lung, in the assay on OVCAR-3 ovarian, with U251 CNS and in the assay with SF-295 CNS was more than 100 µM each time. For the same compound, the TGI in the assay with OVCAR-8 ovarian, in the assay on OVCAR-4 ovarian, with TK-10 renal, in the assay with NCI-H522 lung, in the assay with 786-0 renal and with M14 melanoma was more than 100 µM throughout. Further, the TGI in the assay with SF-268 CNS was more than 100 µM.
Regarding `COC(=O)N/N=C(/Cc1occc(=O)c1O)C(=O)Nc1ccc([N+](=O)[O-])cc1[N+](=O)[O-]`, the TGI with SW-620 colon, in the assay with SK-MEL-2 melanoma, in the assay on NCI-H460 lung, in the assay on U251 CNS, in the assay with SF-295 CNS and with OVCAR-8 ovarian was more than 100 µM each time. In addition, the TGI in the assay with OVCAR-4 ovarian, in the assay on TK-10 renal, in the assay on NCI-H522 lung, with 786-0 renal, in the assay with M14 melanoma and in the assay on SF-268 CNS was more than 100 µM in each case.
With `CN(C)c1nc(=NCc2cccnc2)ss1`, the TGI in the assay on SW-620 colon, in the assay on MDA-MB-231 breast, with SF-295 CNS, with OVCAR-8 ovarian, in the assay on T-47D breast and in the assay with OVCAR-4 ovarian was more than 10 µM each time. In addition, the TGI in the assay on TK-10 renal, in the assay on 786-0 renal, in the assay on M14 melanoma, in the assay with MDA-MB-435 and with SF-268 CNS was more than 10 µM each time.
